Measurements: patent US20070054916A1, “Aryl nitrogen-containing bicyclic compounds and methods of use” (Amgen Inc., priority 2004, published 2007)

Test system: production of TNF by monocytes activated with bacterial lipopolysaccharide (LPS)
Test: Lipopolysaccharide-activated monocyte TNF production assay
Assay type: cell-based
Conditions: Homo sapiens, read-out: IC50 values in the monocyte assay (LPS induced TNF release)
Summary of the method: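 Adherent human PBMC-derived monocytes (~70%) in DMEM/2% FCS were pre-incubated 60 min with nine two-fold compound dilutions, then stimulated with E. coli K532 LPS (added as 30 ng/ml solution) for 4 h at 37 °C. Supernatant TNF-α was measured by sandwich ELISA. IC50 was taken from a polynomial fit of TNF versus compound concentration.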

SMILES	IC50
Cc1ccc(C(=O)Nc2cc(C(F)(F)F)ccc2N(C)CCCN(C)C)cc1-c1ccc2nc(N)ncc2c1 [Example 114, 3-(2-amino-6-quinazolinyl)-N-(2-((3-(dimethylamino)propyl)(methyl)amino)-5-(trifluoromethyl)phenyl)-4-methylbenzamide]	≤ 25 µM
CCN(CC)CCOc1ccc(OC)c(NC(=O)c2ccc(C)c(-c3ccc4nc(N)ncc4c3)c2)c1 [Example 71, 3-(2-amino-6-quinazolinyl)-N-(5-((2-(diethylamino)ethyl)oxy)-2-(methyloxy)phenyl)-4-methylbenzamide]	≤ 25 µM
Cc1ccc(C(=O)Nc2ccc(C(F)(F)F)cn2)cc1-c1ccc2nc(N)ncc2c1 [Example 360, 3-(2-amino-6-quinazolinyl)-4-methyl-N-(5-(trifluoromethyl)-2-pyridinyl)benzamide]	≤ 25 µM
Cc1ccc(C(=O)Nc2cccc(C(F)(F)F)c2C)cc1-c1ccc2nc(N)ncc2c1 [Example 369, 3-(2-amino-6-quinazolinyl)-4-methyl-N-(2-methyl-3-(trifluoromethyl)phenyl)benzamide]	≤ 25 µM
Nc1ncc2cc(-c3cc(NC(=O)c4cccc(C(F)(F)F)c4)ccc3C(F)(F)F)ccc2n1 [Example 196]	≤ 25 µM
Cc1ccc(C(=O)Nc2nc(C(C)(C)C)cs2)cc1-c1ccc2nc(N)ncc2c1 [Example 352, 3-(2-amino-6-quinazolinyl)-N-(4-(1,1-dimethylethyl)-1,3-thiazol-2-yl)-4-methylbenzamide]	≤ 25 µM
Cc1ccc(NC(=O)c2cc(C(F)(F)F)ccc2C(F)(F)F)cc1-c1ccc2nc(N)ncc2c1 [Example 430, N-(3-(2-amino-6-quinazolinyl)-4-methylphenyl)-2,5-bis(trifluoromethyl)benzamide]	≤ 25 µM
CCN(CC)CC(=O)N1CC(C)(C)c2ccc(NC(=O)c3ccc(C)c(-c4ccc5nc(N)ncc5c4)c3)cc21 [Example 64, 3-(2-amino-6-quinazolinyl)-N-(1-(N,N-diethyiglycyl)-3,3-dimethyl-2,3-dihydro-1H-indol-6-yl)-4-methylbenzamide]	≤ 25 µM
Cc1ccc(C(=O)Nc2cccc(Cl)c2Cl)cc1-c1ccc2nc(N)ncc2c1 [Example 232, 3-(2-amino-6-quinazolinyl)-N-(2,3-dichlorophenyl)-4-methylbenzamide]	≤ 25 µM
Cc1ccc(C(=O)Nc2ncccc2OCc2ccccc2)cc1-c1ccc2nc(N)ncc2c1 [Example 358, 3-(2-amino-6-quinazolinyl)-4-methyl-N-(3-((phenylmethyl)oxy)-2-pyridinyl)benzamide]	≤ 25 µM
CCN(CC)S(=O)(=O)c1ccc(OC)c(NC(=O)c2ccc(C)c(-c3cnc4nc(NC)ncc4c3)c2)c1 [Example 191, N-(5-((diethylamino)sulfonyl)-2-(methyloxy)phenyl)-4-methyl-3-(2-(methylamino)pyrido [2,3-d]pyrimidin-6-yl)benzamide]	≤ 25 µM
Cc1ccc(C(=O)N[C@@H](C)c2nccs2)cc1-c1ccc2nc(N)ncc2c1 [Example 121, 3-(2-amino-6-quinazolinyl)-4-methyl-N-((1S)-1-(1,3-thiazol-2-yl)ethyl)benzamide]	≤ 25 µM
Cc1ccc(C(=O)Nc2cc(C(F)(F)F)ccc2N2CCS(=O)(=O)CC2)cc1-c1ccc2nc(N)ncc2c1 [Example 228, 3-(2-amino-6-quinazolinyl)-N-(2-(1,1-dioxido-4-thiomorpholinyl)-5-(trifluoromethyl)phenyl)-4-methylbenzamide]	≤ 25 µM
CNc1ncc2cc(-c3cc(C(=O)Nc4cccc(C(F)(F)F)c4)c(F)cc3C)ccc2n1 [Example 38, 2-fluoro-4-methyl-5-(2-(methylamino)-6-quinazolinyl)-N-(3-(trifluoromethyl)phenyl)benzamide]	≤ 25 µM
CN(C)CCCN(C)c1c(Cl)cc(C(F)(F)F)cc1NC(=O)c1cc(-c2ccc3nc(N)ncc3c2)ccc1F [Example 59, 5-(2-amino-6-quinazolinyl)-N-(3-chloro-2-((3-(dimethylamino)propyl)(methyl)amino)-5-(trifluoromethyl)phenyl)-2-fluorobenzamide]	≤ 25 µM
Cc1ccc(C(=O)Nc2cc(C(F)(F)F)ccc2OCCN2CCCC2)cc1-c1ccc2nc(N)ncc2c1 [Example 420, 3-(2-amino-6-quinazolinyl)-4-methyl-N-(2-((2-(1-pyrrolidinyl)ethyl)oxy)-5-(trifluoromethyl)phenyl)benzamide]	≤ 25 µM
CCN(CC)CCNC(=O)Nc1ccc(NC(=O)c2ccc(C)c(-c3cnc4nc(NC)ncc4c3)c2)cc1C(F)(F)F [Example 188]	≤ 25 µM
Cc1ccc(C(=O)Nc2cccc(C#N)c2)cc1-c1ccc2nc(N)ncc2c1 [Example 429, 3-(2-amino-6-quinazolinyl)-N-(3-cyanophenyl)-4-methylbenzamide]	≤ 25 µM
Cc1ccc(C(=O)Nc2cc(C(F)(F)F)ccc2N2CCCCC2)cc1-c1ccc2nc(N)ncc2c1 [Example 76, 3-(2-amino-6-quinazolinyl)-4-methyl-N-(2-(1-piperidinyl)-5-(trifluoromethyl)phenyl)benzamide]	≤ 25 µM

SMILES	IC50
Cc1ccc(NC(=O)c2cccc(C(C)C)c2)cc1-c1ccc2nc(N)ncc2c1 [Example 432, N-(3-(2-aminoquinazolin-6-yl)-4-methylphenyl)-3-isopropylbenzamide]	≤ 25 µM
COCCNc1ncc2cc(-c3cc(C(=O)Nc4cccc(C(F)(F)F)c4F)ccc3C)ccc2n1 [Example 24, N-(2-fluoro-3-(trifluoromethyl)phenyl)-4-methyl-3-(2-((2-(methyloxy)ethyl)amino)-6-quinazolinyl) benzamide]	≤ 25 µM
CNc1ncc2cc(-c3cc(NC(=O)c4cccc(Cl)c4Cl)ccc3C)cnc2n1 [Example 201, 2,3-dichloro-N-(4-methyl-3-(2-(methylamino)pyrido[2,3-d]pyrimidin-6-yl)phenyl)benzamide]	≤ 25 µM
CN(C)CCOc1ccc(-c2ccc3nc(N)ncc3c2)cc1C(=O)Nc1cccc(C(F)(F)F)c1 [Example 57, 5-(2-amino-6-quinazolinyl)-2-((2-(dimethylamino)ethyl)oxy)-N-(3-(trifluoromethyl)phenyl)benzamide]	≤ 25 µM
Cc1cc(C)c(-c2ccc3nc(N)ncc3c2)c(C)c1NC(=O)c1cccc(C(F)(F)F)c1 [Example 224, N-(3-(2-amino-6-quinazolinyl)-2,4,6-trimethylphenyl)-3-(trifluoromethyl) benzamide]	≤ 25 µM
COc1ccc(NC(=O)c2ccc(C)c(-c3ccc4nc(N)ncc4c3)c2)cc1C(F)(F)F [Example 119, 3-(2-amino-6-quinazolinyl)-4-methyl-N-(4-(methyloxy)-3-(trifluoromethyl)phenyl)benzamide]	≤ 25 µM
Cc1ccc(C(=O)Nc2cccc3nonc23)cc1-c1ccc2nc(N)ncc2c1 [Example 303, 3-(2-amino-6-quinazolinyl)-N-(2,1,3-benzoxadiazol-4-yl)-4-methylbenzamide]	≤ 25 µM
CN(C)CCCN(C)c1ccc(C(F)(F)F)cc1NC(=O)c1cc(-c2ccc3nc(N)ncc3c2)ccc1F [Example 84, 5-(2-amino-6-quinazolinyl)-N-(2-((3-(dimethylamino)propyl)(methyl)amino)-5-(trifluoromethyl)phenyl)-2-fluorobenzamide]	≤ 25 µM
Cc1ccc(C(=O)Nc2ccc3c(c2)N(C(=O)CN2CCOCC2)CC3(C)C)cc1-c1ccc2nc(N)ncc2c1 [Example 65, 3-(2-amino-6-quinazolinyl)-N-(3,3-dimethyl-1-(4-morpholinytacetyl)-2,3-dihydro-1H-indol-6-yl)-4-methylbenzamide]	≤ 25 µM
Nc1ncc2cc(-c3cc(NC(=O)c4cccc(C(F)(F)F)c4F)ccc3Cl)ccc2n1 [Example 481, N-(3-(2-amino-6-quinazolinyl)-4-chlorophenyl)-2-fluoro-3-(trifluoromethyl)benzamide]	≤ 25 µM
CNc1ncc2cc(-c3cc(C(=O)Nc4cccc(C(F)(F)F)c4C)ccc3C)ccc2n1 [Example 11, 4-methyl-3-(2-(methylamino)-6-quinazolinyl)-N-(2-methyl-3-(trifluoromethyl)phenyl)benzamide]	≤ 25 µM
Cc1ccc(C(=O)Nc2ccc(C(F)(F)F)cc2N(C)CCCN(C)C)cc1-c1ccc2nc(N)ncc2c1 [Example 118, 3-(2-amino-6-quinazolinyl)-N-(2-((3-(dimethylamino)propyl)(methyl)amino)-4-(trifluoromethyl)phenyl)-4-methylbenzamide]	≤ 25 µM
Cc1ccc(C(=O)Nc2cccc(C(F)(F)F)c2C)cc1-c1ccc2nc(NC3CC3)ncc2c1 [Example 37, 3-(2-(cyclopropylamino)-6-quinazolinyl)-4-methyl-N-(2-methyl-3-(trifluoromethyl)phenyl)benzamide]	≤ 25 µM
Cc1ccc(C(=O)Nc2cccc(C(F)(F)F)c2)cc1-c1ccc2nc(NC3CC3)ncc2c1 [Example 29, 3-(2-(cyclopropylamino)-6-quinazolinyl)-4-methyl-N-(3-(trifluoromethyl)phenyl)benzamide]	≤ 25 µM
Cc1ccc(C(=O)Nc2cccc(C(F)(F)F)c2)cc1-c1ccc2nc(NCCN3CCOCC3)ncc2c1 [Example 20, 4-methyl-3-(2-((2-(4-morpholinyl)ethyl)amino)-6-quinazolinyl)-N-(3-(trifluoromethyl)phenyl)benzamide]	≤ 25 µM
Nc1ncc2cc(-c3cccc(C(=O)Nc4cc(C(F)(F)F)ccc4N4CCCCC4)c3)ccc2n1 [Example 54, 3-(2-amino-6-quinazolinyl)-N-(2-(1-piperidinyl)-5-(trifluoromethyl)phenyl)benzamide]	≤ 25 µM
CC(C)(C)c1ccc(C(=O)Nc2cc(-c3ccc4nc(N)ncc4c3)ccc2F)cc1 [Example 488, N-(5-(2-amino-6-quinazolinyl)-2-fluorophenyl)-4-(1,1-dimethylethyl)benzamide]	≤ 25 µM
Cc1ccnc(NC(=O)c2ccc(C)c(-c3ccc4nc(N)ncc4c3)c2)c1 [Example 339, 3-(2-amino-6-quinazolinyl)-4-methyl-N-(4-methyl-2-pyridinyl)benzamide]	≤ 25 µM
